≈ marks a conversion by molar mass, not a printed value. Like-named read-outs stand apart in the source and are kept apart here.
Key:
[1] = Pharmacokinetics of oral flubendazole in rabbits
Protocol: PK-PD relationships in the rabbit were estimated in two independently conducted experiments including 6 rabbits in each. Rabbits were placed under general anesthesia for removal of CSF via intracisternal tapping at 48 h intervals. […] Treatment was initiated 48 h postinoculation and continued for 10 days, after which time all rabbits were sacrificed. Thus, the total duration of the experiment was 288 h.
Flubendazole concentrations in all matrices were measured using validated ultrahigh-performance liquid chromatography-tandem mass spectrometry (LC-MS/MS) implemented on an Agilent 6420 triple quad mass spectrometer and an Agilent 1290 infinity LC system (Agilent Technologies UK Ltd., Cheshire, UK). Flubendazole was extracted by protein precipitation by adding 300 μl of a 50:50 mix of acetonitrile and methanol that contained the internal standard [6,7-dimethyl-2,3-di(2-pyridyl) quinoxaline; Sigma-Aldrich, Dorset, UK] at a final concentration of 1 mg/liter to 30 μl of each matrix.

[2] = In vitro DMPK: aqueous solubility; type: physicochemical
[3] = rats, 5, 15, 30 mg/kg/day (male), 2.5, 5, 10 mg/kg/day (female), 2 weeks; ref Janssen GLP toxicology studies; cited from earlier work
[4] = system: C. neoformans var. grubii (ATCC 208821; H99); experiment: Hollow-fiber infection model of cryptococcal meningoencephalitis; type: cell-based, Cryptococcus neoformans; conditions: q24h for 8 days, intended peaks 1.25, 2.5, 10 mg/liter
Protocol: A new hollow-fiber infection model was developed to investigate the in vitro pharmacodynamics of flubendazole against C. neoformans. The same cartridges (FiberCell Systems, Frederick, MD) and configuration as previously described for bacterial pathogens was used (see, for example, reference). The extracapillary space of each cartridge was inoculated with 40 ml of a suspension containing 6 log10 CFU/ml of C. neoformans var. grubii (ATCC 208821; H99). Yeast extract-peptone-dextrose (YPD) medium was pumped from the central compartment through the cartridge and back again using a peristaltic pump (205 U; Watson-Marlow, United Kingdom). The hollow-fiber infection model was incubated at 37°C in ambient air. The time course of fungal growth was determined by removing 1 ml from the extracapillary space of the cartridge and plating serial 10-fold dilutions to YPD agar.
The relationship between flubendazole exposure and its effect was explored using a range of drug exposures. […] Various doses of flubendazole were administered q24h by infusion over 1 h for 8 days to the central compartment using a programmable syringe driver (Aladdin pump; World Precision Instruments, United Kingdom). There was a 24-h delay in the initiation of flubendazole therapy postinoculation. […]

[5] = design: species or system mice; conditions: mouse, in vivo
Protocol: The pharmacokinetics of oral flubendazole was determined with two independently conducted experiments. Treatment was initiated 24 h postinoculation. Doses of 2 to 12 mg/kg were used. Only the first dosing interval was studied. A serial-sacrifice design was used with groups of 3 mice that were sacrificed at 0.5, 1, 2, 8, and 24 h […].
(§1) The pharmacokinetic and pharmacodynamic data sets from mice were modeled using the program Pmetrics ([33]) and the following five inhomogeneous differential equations: (1) XP(1)=B(1)−Ka×X(1) (2) XP(2)=Ka×X(1)−(SCL/V)×X(2)−Kcp×X(2)+Kpc×X(3)−Kcb×X(2)+Kbc×X(4) (3) XP(3)=Kcp×X(2)−Kpc×X(3) (4) XP(4)=[…] (5) XP(5) = Kgmax [1−((X(4)/V)^Hg/C50g^Hg+(X(4)/V)^Hg)] × [1−(X(5)/POPMAX)]×X(5)
(§2) The system parameters and their units are as follows: B(1) (mg) represents the bolus input of flubendazole into the gut. Ka (h^−1) is the first-order rate constant collecting the gut and the central compartment, SCL (liters/h) is the clearance of flubendazole from the central compartment, V (liters) is the volume of the central compartment, and Kcp (h^−1) and Kpc (h^−1) are the first-order intercompartmental rate constants. Kgmax (log10 CFU/g/h) is the maximal rate of cryptococcal growth. POPMAX (CFU/g) is the maximum theoretical fungal density. C50g (mg/liter) is the concentration of flubendazole that induces half-maximal effects on growth. Hg is the slope function for growth. The initial condition (CFU/g; not shown in the equations) is the fungal density immediately following inoculation and is estimated along with other parameters.
(§3) Equations 1, 2, 3, and 4 are pharmacokinetic equations that describe the movement of drug from the gut, throughout the body, and into the brain. Equation 1 describes the movement of drug from the gut. Equation 2 describes the rate of change of flubendazole in the central compartment (plasma) with first-order clearance and movement of drug to and from both a peripheral (unmeasured) compartment and the cerebrum. Equations 3 and 4 describe the rate of change of drug in the peripheral and cerebral compartments, respectively. The pharmacodynamics of flubendazole against Cryptococcus neoformans is described by equation 5, which has terms that describe the capacity-limited growth of Cryptococcus and flubendazole-induced suppression of growth. The antifungal activity in the cerebrum is primarily related to concentrations in the cerebrum.

[6] = system: filarial diseases such as onchocerciasis and lymphatic filariasis; design: method as in PMID 21609260; conditions: given subcutaneously; cited from earlier work
In vitro DMPK: logD7.4 = type: physicochemical; conditions: pH 7.4; commercially available powder
[7] = design: method as in PMID 26443851; conditions: cited from earlier work
porcine tubulin [8] = molecular target: T1, porcine tubulin (Sus scrofa, UniProt P02554); experiment: Porcine tubulin polymerization assay; type: biochemical; conditions: 37°C, 1 h, read-out: IC50 against porcine tubulin
T1 construct: purified porcine brain tubulin; purchased Cytoskeleton, Inc., Denver, CO BK011P; host or cells: porcine brain (tissue-purified)
Protocol: Porcine tubulin is generally used as a surrogate for human tubulin because of its high degree of homology (95%) ([27]). […] The commercially available porcine tubulin assay (BK011P; Cytoskeleton, Inc., Denver, CO) quantifies the time-dependent polymerization of tubulin to microtubules and thus the ability of tubulin inhibitors to disrupt this process.
The porcine tubulin assay was performed according to the manufacturer's instructions. Briefly, the 96-well assay plate was prewarmed to 37°C prior to use. Five microliters of test compound(s) and controls at 0, 1.25, 2.5, 5, and 10 μM were aliquoted into each well and prewarmed for 1 min. […] Polymerization was initiated by mixing 45 μl of reaction buffer that contained 2 mg/ml of purified porcine brain tubulin, 10 μM fluorescent reporter, PEM buffer (80 mM PIPES, 0.5 mM EGTA, 2 mM MgCl2 [pH 6.9]), 1 mM GTP, and 20.3% glycerol. Tubulin polymerization was followed by an increase in fluorescence intensity due to the incorporation of a fluorescence reporter into microtubules as polymerization occurred. The change in fluorescence was measured using an excitation and emission wavelength of 360 nm and 450 nm, respectively, every 1 min for 1 h at 37°C using a Varioskan multimode plate reader (Thermo scientific Inc.). All data points were acquired in triplicate, and IC50s were calculated with GraphPad Prism. […]

[9] = In vitro DMPK: plasma protein binding; type: in vitro ADME
C. neoformans isolates [10] = experiment: MIC determination, CLSI methodology; type: cell-based, Cryptococcus neoformans; conditions: 50 strains
Protocol: (§4) The initial in vitro susceptibility testing was performed with H99 (ATCC 208821). An additional 49 clinical isolates were obtained from the National Centre for Microbiology Instituto de Salud Carlos III, Madrid, Spain (courtesy of Ana Alastruey-Izquierdo and Manual Cuenca-Estrella). These isolates were identified to the species level using standard microbiological techniques.
(§5) The MIC of flubendazole against H99 (ATCC 208821) and the 49 isolates was estimated using methodology of the European Committee on Antimicrobial Susceptibility Testing (EUCAST [25]) and the Clinical and Laboratory Standards Institute (CLSI [26]). The endpoint for MIC determination using was 50% for both the EUCAST and CLSI methods. MICs were performed in triplicate.

[11] = In vitro DMPK: rat hepatic intrinsic clearance; type: in vitro ADME; conditions: hepatocytes
Cryptococcus neoformans [12] = experiment: Pharmacodynamics of oral flubendazole nanoformulation in murine model of cryptococcal meningitis; type: in vivo; conditions: mice
Protocol: A previously described ([8]) and well-characterized murine model of cryptococcal meningitis was used to investigate the pharmacodynamics of flubendazole. All laboratory animal experiments were performed under UK Home Office project license PPL40/3630 and were approved by the University of Liverpool's Animal Welfare Ethics Review Board. Male CD1 mice were purchased from Charles River and were 20 to 30 g at the time of experimentation. An inoculum of 3 × 10^8 CFU in 0.25 ml was used for each mouse. Groups of mice (n = 3) were serially sacrificed throughout the experimental period. The brains were removed and homogenized. Serial 10-fold dilutions were plated to YPD agar supplemented with chloramphenicol to enumerate the total fungal burden. Plates were incubated in air at 30°C for at least 48 h.
The pharmacodynamics of oral flubendazole was estimated over the course of three separate independently conducted experiments. Groups of 3 mice were sacrificed at 2, 24, 48, 96, 144, and 168 h postinoculation. Dose finding studies were performed using flubendazole at 2, 4, 6, 8, and 12 mg/kg q24h orally. The upper dosage was limited by the volume restrictions for mice imposed by Home Office project license PPL40/3630. A fourth experiment compared 12 mg/kg q24 with 6 mg/kg q12h to examine whether more fractionated regimens provided any additional antifungal effect.
as §1, §2, §3

[13] = dogs, 20, 40, 100 mg/kg/day, 2 weeks; ref Janssen GLP toxicology studies; cited from earlier work
Cryptococcus neoformans [14] = type: in vivo, mice
Cryptococcus neoformans [15] = experiment: Pharmacodynamics in rabbit model of cryptococcal meningitis; type: in vivo; conditions: rabbits; for antifungal effect: CSF
Protocol: A previously described and well-characterized rabbit model of cryptococcal meningoencephalitis ([32]) was used to further investigate the pharmacodynamics of flubendazole. Male New Zealand White rabbits were purchased from Harlan. Rabbits weighed 2.5 to 3 kg at the time of experimentation. Rabbits were immunosuppressed intramuscularly with hydrocortisone at 10 mg/kg on day −1 relative to infection and then daily throughout the experiment.
Cryptococcal meningoencephalitis was induced with the intracisternal inoculation of 0.25 ml of a suspension containing 3.8 × 10^8 CFU/ml under general anesthesia (induced with medetomidine and ketamine). This inoculum results in progressive infection that manifests as an increase in fungal burden in the CSF and reproducible encephalitis. There was minimal clinical disease with no demonstrable neurological signs in the experimental period. Mortality always occurred in the context of cisternal tapping and repeated anesthesia rather than from progressive infection.
We directly linked plasma concentrations with the antifungal effect.

C. neoformans isolates [16] = experiment: MIC determination, EUCAST methodology; type: cell-based, Cryptococcus neoformans; conditions: for MIC: Cryptococcus neoformans
Protocol: as §4, §5

[17] = In vitro DMPK: human microsomal intrinsic clearance; type: in vitro ADME; conditions: human microsomes
porcine tubulin [18] = molecular target: T1, porcine tubulin; design: method as in doi:10.2533/chimia.2007.368; conditions: known tubulin inhibitors; cited from earlier work

T1 sequence (P02554 whole entry): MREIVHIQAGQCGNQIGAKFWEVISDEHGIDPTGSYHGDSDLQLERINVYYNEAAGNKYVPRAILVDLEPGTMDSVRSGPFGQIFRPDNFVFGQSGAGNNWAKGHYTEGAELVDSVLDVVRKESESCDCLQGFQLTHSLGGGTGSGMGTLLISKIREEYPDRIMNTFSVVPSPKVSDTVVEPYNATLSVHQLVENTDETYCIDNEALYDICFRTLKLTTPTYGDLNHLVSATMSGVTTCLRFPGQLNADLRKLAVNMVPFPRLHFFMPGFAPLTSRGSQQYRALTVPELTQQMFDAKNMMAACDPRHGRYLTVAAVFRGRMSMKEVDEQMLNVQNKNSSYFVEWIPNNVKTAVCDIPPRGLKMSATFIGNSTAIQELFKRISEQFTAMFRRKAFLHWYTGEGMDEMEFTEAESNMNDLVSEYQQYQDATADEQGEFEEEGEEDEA
T1 sequence (P02550 whole entry partner): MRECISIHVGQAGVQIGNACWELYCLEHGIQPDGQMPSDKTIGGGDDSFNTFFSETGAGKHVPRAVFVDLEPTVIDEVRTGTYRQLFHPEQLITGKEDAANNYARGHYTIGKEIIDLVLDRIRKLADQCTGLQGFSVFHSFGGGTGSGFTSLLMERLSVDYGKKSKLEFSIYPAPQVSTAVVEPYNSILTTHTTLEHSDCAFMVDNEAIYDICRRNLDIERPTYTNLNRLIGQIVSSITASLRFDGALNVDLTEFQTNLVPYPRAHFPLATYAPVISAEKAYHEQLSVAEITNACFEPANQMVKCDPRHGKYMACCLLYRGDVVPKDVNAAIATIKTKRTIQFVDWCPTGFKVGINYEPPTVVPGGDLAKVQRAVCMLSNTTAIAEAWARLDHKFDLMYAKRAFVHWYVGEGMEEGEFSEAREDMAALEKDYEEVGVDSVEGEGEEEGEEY

## COC(=O)Nc1nc2cc(C(=O)c3ccc(F)cc3)ccc2[nH]1 [flubendazole]
[1]
  oral bioavailability: orally bioavailable
[1]; oral 6 or 22.5 mg/kg q24h, at time of sacrifice, limit of quantitation 0.0005 mg/liter
  drug concentrations in CSF or cerebrum: no quantifiable drug concentrations
[2]
  solubility: 0.8 µM (≈ 0.251 µg/mL)
[3]
  toxicity findings: evidence of toxicity related to the pharmacological activity of flubendazole in the gastrointestinal tract, lymphoid system, and bone marrow, as well as testicular toxicity
[4]
  antifungal activity in hollow-fiber model: Rapid fungicidal activity
[5]
  absorption after oral dosing: rapidly absorbed
[5]; po
  Ka, mean: 11.312 h⁻¹
  Ka, median: 14.895 h⁻¹
  Kbc, mean: 0.056 h⁻¹
  Kbc, median: 0.056 h⁻¹
  Kcb, mean: 3.446 h⁻¹
  Kcb, median: 0.594 h⁻¹
  Kcp, mean: 15.741 h⁻¹
  Kcp, median: 15.404 h⁻¹
  Kpc, mean: 16.997 h⁻¹
  Kpc, median: 16.915 h⁻¹
  SCL/F (apparent clearance), mean: 0.039 L/h
  SCL/F (apparent clearance), median: 0.026 L/h
  Vb/F (apparent volume of brain), mean: 0.277 L
  Vb/F (apparent volume of brain), median: 0.146 L
  Vc/F (apparent volume of central compartment), mean: 0.051 L
  Vc/F (apparent volume of central compartment), median: 0.069 L
  cerebrum concentrations relative to plasma: consistently higher than those observed in plasma
  ratio of AUC for serum and AUC for cerebrum: 1:4.44
[6]
  activity in filarial disease models: striking activity
In vitro DMPK: logD7.4
  logD: 2.9
[7]
  aneugenicity: aneugenic
  clastogenicity: clastogenic
  embryotoxicity: embryotoxic
Porcine tubulin [8]
  IC50: 2.38 µM
[9]
  fraction unbound: 0.094
C. neoformans isolates [10]
  No. of isolates with MIC (mg/liter) of: 0.03: 2
  No. of isolates with MIC (mg/liter) of: 0.06: 40
  No. of isolates with MIC (mg/liter) of: 0.125: 8
  No. of isolates with MIC (mg/liter) of: 0.25: 0
  No. of isolates with MIC (mg/liter) of: 0.5: 0
[11]
  hepatocyte CLint: 39 µL/min/1e6 cells
Cryptococcus neoformans [12]; 12 mg/kg of body weight/day orally (abstract)
  reduction in fungal burden compared with vehicle-treated controls: ~2 log10CFU/g
Cryptococcus neoformans [12]; 12 mg/kg/day orally
  effect on fungal growth in the brain: slowed but did not prevent fungal growth in the brain
Cryptococcus neoformans [12]; PK-PD model
  C50g (concentration inducing half-maximal effects on growth), mean: 2.04 mg/L
  C50g (concentration inducing half-maximal effects on growth), median: 1.68 mg/L
  Hg (slope function for effect on growth), mean: 10.338
  Hg (slope function for effect on growth), median: 5.096
Cryptococcus neoformans [12]; oral, single experiment, data not shown
  antifungal effect of 6 mg/kg q12h compared with 12 mg/kg/day: no difference in antifungal effect
[13]
  liver toxicity: liver toxicity was also observed
  toxicity findings: evidence of toxicity related to the pharmacological activity of flubendazole in the gastrointestinal tract, lymphoid system, and bone marrow, as well as testicular toxicity
Cryptococcus neoformans [14]; mice, oral, water, polysorbate 80/PBS, DMSO, PEG400 or cyclodextrin vehicles, data not shown
  antifungal effect, orally administered pure compound: no demonstrable antifungal effect
Cryptococcus neoformans [14]; mouse, in vivo
  flubendazole concentrations in plasma and cerebrum: quantifiable in plasma and the cerebrum
Cryptococcus neoformans [15]; 6 mg/kg/day orally
  antifungal effect: no demonstrable antifungal effect
Cryptococcus neoformans [15]; 22.5 mg/kg q24h orally, few animals
  antifungal effect: the effect was small
Cryptococcus neoformans [15]; 6 and 22.5 mg/kg q24h, 288 h postinoculation, P = 0.464
  fungal burden in the cerebrum at the end of the experiment vs other groups: no difference in the fungal burden
C. neoformans isolates [16]; EUCAST methodology, read-out: modal MIC
  MIC: 0.125 µg/mL (≈ 0.399 µM)
C. neoformans isolates [16]; range over isolates, Table 1, comparable with EUCAST and CLSI, read-out: MICs
  MIC: 0.06 to 0.25 µg/mL (≈ 0.192 to 0.798 µM)
C. neoformans isolates [16]; EUCAST, 50 strains
  No. of isolates with MIC (mg/liter) of: 0.03: 1
  No. of isolates with MIC (mg/liter) of: 0.06: 19
  No. of isolates with MIC (mg/liter) of: 0.125: 25
  No. of isolates with MIC (mg/liter) of: 0.25: 5
  No. of isolates with MIC (mg/liter) of: 0.5: 0
[17]
  microsomal CLint: 44 µL/min/mg

## CC(=O)O[C@H]1C(=O)[C@@]2(C)[C@H]([C@H](OC(=O)c3ccccc3)[C@]3(O)C[C@H](OC(=O)[C@H](O)[C@@H](NC(=O)c4ccccc4)c4ccccc4)C(C)=C1C3(C)C)[C@]1(OC(C)=O)CO[C@@H]1C[C@@H]2O [paclitaxel]
Porcine tubulin [18]
  IC50: 3.9 µM

## CC[C@]1(O)C[C@@H]2CN(CCc3c([nH]c4ccccc34)[C@@](C(=O)OC)(c3cc4c(cc3OC)N(C)[C@H]3[C@@](O)(C(=O)OC)[C@H](OC(C)=O)[C@]5(CC)C=CCN6CC[C@]43[C@@H]65)C2)C1 [vinblastine]
Porcine tubulin [18]
  IC50: 5.3 µM

From paper PMC5913986, “Repurposing and Reformulation of the Antiparasitic Agent Flubendazole for Treatment of Cryptococcal Meningoencephalitis, a Neglected Fungal Disease” (Antimicrobial Agents and Chemotherapy, 2018)
